According to ChEMBL document CHEMBL3351254, “Rational design, synthesis and anti-proliferative evaluation of novel 1,4-benzoxazine-[1,2,3]triazole hybrids” (2015):

Tests used:
Format in all cases: functional
[1] = Antiproliferative activity against human IMR32 cells assessed as reduction in net protein increase after 48 hrs by SRB assay; conditions: IMR-32, 48 h
HeLa = test: Antiproliferative activity against human HeLa cells assessed as reduction in net protein increase after 48 hrs by SRB assay
[2] = Antiproliferative activity against human MiaPaCa cells assessed as reduction in net protein increase after 48 hrs by SRB assay; conditions: MIA PaCa-2, 48 h
MDA-MB-231 = test: Antiproliferative activity against human MDA-MB-231 cells assessed as reduction in net protein increase after 48 hrs by SRB assay; conditions: MDA-MB-231, 48 h

| Structure (SMILES) | GI50 [1] [µM] | GI50 (HeLa) [µM] | GI50 [2] [µM] | GI50 (MDA-MB-231) [µM] |
| --- | --- | --- | --- | --- |
| CCCCCCc1cn(CCCN2C(=O)COc3ccccc32)nn1 | 0.71 | 0.1 | 0.15 | 1.1 |
| O=C1COc2ccccc2N1CCCn1cc(-c2ccccn2)nn1 | 2 | 10 | 5.8 | 4.8 |
| COc1cccc2c1C(=O)c1c(O)c3c(c(O)c1C2=O)C[C@@](O)(C(=O)CO)C[C@@H]3O[C@H]1C[C@H](N)[C@H](O)[C@H](C)O1 [DOXORUBICIN] | 0.023 | 0.073 | 0.097 | 0.085 |
| O=C1COc2ccccc2N1CCCn1cc(C2(O)CCCCC2)nn1 | 1.2 | 2 | 2.5 | 1.2 |
| COc1ccc(-c2cn(CCCN3C(=O)COc4ccccc43)nn2)cc1 | 49.9 | 4.9 | 15.7 | 41.5 |
| CC(=O)O[C@H]1C(=O)[C@@]2(C)[C@H]([C@H](OC(=O)c3ccccc3)[C@]3(O)C[C@H](OC(=O)[C@H](O)[C@@H](NC(=O)c4ccccc4)c4ccccc4)C(C)=C1C3(C)C)[C@]1(OC(C)=O)CO[C@@H]1C[C@@H]2O [PACLITAXEL] | 0.075 | 0.025 | 0.056 | 0.091 |
| CCCCCc1ccc(-c2cn(CCCN3C(=O)COc4ccccc43)nn2)cc1 | 43.5 | > 100 | > 100 | 5 |
| COc1ccc2cc(-c3cn(CCCN4C(=O)COc5ccccc54)nn3)ccc2c1 | 1.3 | > 100 | > 100 | 5 |
| O=C1COc2ccccc2N1CCCn1cc(CO)nn1 | 5.5 | 7.3 | 1.01 | 5.7 |
| O=C1COc2ccccc2N1CCCn1cc(-c2cccnc2)nn1 | 0.86 | > 100 | 8.2 | 3 |
| Cc1ccc(-c2cn(CCCN3C(=O)COc4ccccc43)nn2)cc1 | 4.4 | 14.3 | > 100 | 1.12 |
| O=C1COc2ccccc2N1CCCn1cc(-c2cc3ccccc3c3ccccc23)nn1 | 0.13 | > 100 | 8.4 | > 100 |
| O=C1COc2ccccc2N1CCCn1cc(CCCCl)nn1 | 0.2 | 0.1 | 12.5 | 6.4 |
| CCCc1cn(CCCN2C(=O)COc3ccccc32)nn1 | 1.4 | 23.2 | 2.6 | 1.1 |
| CCCCc1cn(CCCN2C(=O)COc3ccccc32)nn1 | 5.7 | 1.02 | 2.5 | 3.6 |
| O=C1COc2ccccc2N1CCCn1cc(-c2ccccc2)nn1 | 0.37 | 9 | 94 | 4.9 |
